Test system: MV-4-11 cells
Assay: Gene expression microarray analysis (Affymetrix PrimeView) and GSEA
Type: cell-based, human
Set-up: RFU PODN (11730768_x_at) / Fold change /veh PODN (11730768_x_at) / RFU LINC00158 (11744669_a_at) / Fold change /veh LINC00158 (11744669_a_at) / RFU DUSP10 (11751237_a_at) / Fold change /veh DUSP10 (11751237_a_at) / RFU ID3 (11757404_x_at) / Fold change /veh ID3 (11757404_x_at) / RFU PLEKHG5 (11737974_s_at) / Fold change /veh PLEKHG5 (11737974_s_at) / RFU LRRC4B (11730491_at) / Fold change /veh LRRC4B (11730491_at) / RFU GIMAP4 (11747438_a_at) / Fold change /veh GIMAP4 (11747438_a_at) / RFU KRT8 (11758183_x_at) / Fold change /veh KRT8 (11758183_x_at) / RFU CNN1 (11734310_a_at) / Fold change /veh CNN1 (11734310_a_at) / RFU VPS37D (11726825_at) / Fold change /veh VPS37D (11726825_at) / RFU C10orf10 (11716522_x_at) / Fold change /veh C10orf10 (11716522_x_at) / RFU KIR2DL2 /// KIR2DL4 /// KIR2DL5A /// KIR2DL5B /// KIR2DS1 /// KIR2DS2 /// KIR2DS3 /// KIR2DS4 /// KIR3DL3 /// KIR3DL3 /// KIR3DS1 (11738374_at) / Fold change /veh KIR2DL2 /// KIR2DL4 /// KIR2DL5A /// KIR2DL5B /// KIR2DS1 /// KIR2DS2 /// KIR2DS3 /// KIR2DS4 /// KIR3DL3 /// KIR3DL3 /// KIR3DS1 (11738374_at) / RFU C1QL1 (11718748_at) / Fold change /veh C1QL1 (11718748_at) / RFU TMPRSS4 (11747572_a_at) / Fold change /veh TMPRSS4 (11747572_a_at) / RFU HAMP (11756126_x_at) / Fold change /veh HAMP (11756126_x_at) / RFU RNFT2 (11725882_a_at) / Fold change /veh RNFT2 (11725882_a_at) / RFU NR4A2 (11747474_a_at) / Fold change /veh NR4A2 (11747474_a_at) / RFU ABCC12 (11746883_a_at) / Fold change /veh ABCC12 (11746883_a_at) / RFU TMEM136 (11760407_x_at) / Fold change /veh TMEM136 (11760407_x_at) / RFU CLDN22 /// WWC2 (11732394_at) / Fold change /veh CLDN22 /// WWC2 (11732394_at) / RFU HLA-DPB1 (11760878_x_at) / Fold change /veh HLA-DPB1 (11760878_x_at) / RFU SPINT1 (11716480_a_at) / Fold change /veh SPINT1 (11716480_a_at) / RFU GAP43 (11754022_s_at) / Fold change /veh GAP43 (11754022_s_at) / RFU A4GNT (11735810_at) / Fold change /veh A4GNT (11735810_at) / RFU PRB3 (11715151_x_at) / Fold change /veh PRB3 (11715151_x_at) / RFU TUBB4B (11761932_at) / Fold change /veh TUBB4B (11761932_at) / RFU CAPN14 (11732068_a_at) / Fold change /veh CAPN14 (11732068_a_at) / RFU TMCC2 (11721928_a_at) / Fold change /veh TMCC2 (11721928_a_at) / RFU IRGQ (11745062_a_at) / Fold change /veh IRGQ (11745062_a_at) / RFU FAM174B (11720279_a_at) / Fold change /veh FAM174B (11720279_a_at) / RFU TMPRSS4 (11748680_a_at) / Fold change /veh TMPRSS4 (11748680_a_at) / RFU FAM212B (11763350_a_at) / Fold change /veh FAM212B (11763350_a_at) / RFU PLEKHG5 (11743358_a_at) / Fold change /veh PLEKHG5 (11743358_a_at) / RFU ZSCAN30 (11745921_a_at) / Fold change /veh ZSCAN30 (11745921_a_at) / RFU CMKLR1 (11741424_a_at) / Fold change /veh CMKLR1 (11741424_a_at) / RFU LOC101060620 /// MAPK8IP1 (11723275_at) / Fold change /veh LOC101060620 /// MAPK8IP1 (11723275_at) / RFU SPTSSB (11747773_x_at) / Fold change /veh SPTSSB (11747773_x_at) / RFU PRSS12 (11739890_at) / Fold change /veh PRSS12 (11739890_at) / RFU BIN1 (11741810_x_at) / Fold change /veh BIN1 (11741810_x_at) / RFU WNT11 (11732464_a_at) / Fold change /veh WNT11 (11732464_a_at) / RFU C10orf10 (11716521_a_at) / Fold change /veh C10orf10 (11716521_a_at) / RFU C5orf56 (11738089_at) / Fold change /veh C5orf56 (11738089_at) / RFU CYB561 (11721691_x_at) / Fold change /veh CYB561 (11721691_x_at) / RFU ANKRD19P (11752326_a_at) / Fold change /veh ANKRD19P (11752326_a_at) / RFU OR2T12 /// OR2T33 /// OR2T8 (11738714_s_at) / Fold change /veh OR2T12 /// OR2T33 /// OR2T8 (11738714_s_at) / RFU VCAN (11748164_a_at) / Fold change /veh VCAN (11748164_a_at) / RFU JSRP1 (11732532_at) / Fold change /veh JSRP1 (11732532_at) / RFU KRTAP10-11 (11738290_x_at) / Fold change /veh KRTAP10-11 (11738290_x_at) / RFU MYO3A (11730013_a_at) / Fold change /veh MYO3A (11730013_a_at) / RFU EBF3 (11725865_a_at) / Fold change /veh EBF3 (11725865_a_at) / RFU CAMK2N1 (11719241_x_at) / Fold change /veh CAMK2N1 (11719241_x_at) / RFU C5orf56 (11738088_a_at) / Fold change /veh C5orf56 (11738088_a_at) / RFU OLFML3 (11715873_a_at) / Fold change /veh OLFML3 (11715873_a_at) / RFU LOC100653217 /// NTM (11731650_a_at) / Fold change /veh LOC100653217 /// NTM (11731650_a_at) / RFU MAPK11 (11762145_a_at) / Fold change /veh MAPK11 (11762145_a_at) / RFU FIZ1 (11724087_x_at) / Fold change /veh FIZ1 (11724087_x_at) / RFU OASL (11726364_x_at) / Fold change /veh OASL (11726364_x_at) / RFU SOX15 (11748057_x_at) / Fold change /veh SOX15 (11748057_x_at) / RFU CD79A (11719716_a_at) / Fold change /veh CD79A (11719716_a_at) / RFU HIST1H1D (11736915_at) / Fold change /veh HIST1H1D (11736915_at) / RFU CASKIN2 (11723855_a_at) / Fold change /veh CASKIN2 (11723855_a_at) / RFU LOC730098 (11760151_x_at) / Fold change /veh LOC730098 (11760151_x_at) / RFU OR4N2 (11742367_at) / Fold change /veh OR4N2 (11742367_at) / RFU PRRT2 (11749266_a_at) / Fold change /veh PRRT2 (11749266_a_at) / RFU SNX32 (11753110_a_at) / Fold change /veh SNX32 (11753110_a_at) / RFU CDHR5 (11726645_a_at) / Fold change /veh CDHR5 (11726645_a_at) / RFU RCAN1 (11760418_a_at) / Fold change /veh RCAN1 (11760418_a_at) / RFU FAM167A (11723789_a_at) / Fold change /veh FAM167A (11723789_a_at) / RFU FAM26E (11764081_at) / Fold change /veh FAM26E (11764081_at) / RFU ISYNA1 (11749810_s_at) / Fold change /veh ISYNA1 (11749810_s_at) / RFU ACY1 (11761880_at) / Fold change /veh ACY1 (11761880_at) / RFU 11764098_at / Fold change /veh 11764098_at / RFU SAMD14 (11745864_x_at) / Fold change /veh SAMD14 (11745864_x_at) / RFU NPB (11741838_a_at) / Fold change /veh NPB (11741838_a_at) / RFU TMPRSS6 (11731388_a_at) / Fold change /veh TMPRSS6 (11731388_a_at) / RFU KRTAP10-2 (11738614_at) / Fold change /veh KRTAP10-2 (11738614_at) / RFU ARHGAP8 /// PRR5-ARHGAP8 (11727945_x_at) / Fold change /veh ARHGAP8 /// PRR5-ARHGAP8 (11727945_x_at) / RFU KRTAP5-7 /// NADSYN1 (11734609_at) / Fold change /veh KRTAP5-7 /// NADSYN1 (11734609_at) / RFU RASL12 (11751679_a_at) / Fold change /veh RASL12 (11751679_a_at) / RFU CDKN2B (11736163_a_at) / Fold change /veh CDKN2B (11736163_a_at) / RFU PRF1 (11729649_at) / Fold change /veh PRF1 (11729649_at) / RFU, ZNF638 /// ZNF638-IT1 / Fold change vs veh, ZNF638 /// ZNF638-IT1 / RFU, PANK3 / Fold change vs veh, PANK3 / RFU, SH3YL1 / Fold change vs veh, SH3YL1 / RFU, ZEB2 / Fold change vs veh, ZEB2 / RFU, NRIP1 / Fold change vs veh, NRIP1 / RFU, PTTG1IP / Fold change vs veh, PTTG1IP / RFU, CAPN2 / Fold change vs veh, CAPN2 / RFU, MED14 / Fold change vs veh, MED14 / RFU, SNORA58 / Fold change vs veh, SNORA58 / RFU, C1orf63 / Fold change vs veh, C1orf63 / RFU, LRRFIP1 / Fold change vs veh, LRRFIP1 / RFU, NDUFAF7 / Fold change vs veh, NDUFAF7 / RFU, SLC12A2 / Fold change vs veh, SLC12A2 / RFU, IBTK / Fold change vs veh, IBTK / RFU, ESF1 / Fold change vs veh, ESF1 / Fold change vs veh, TMEM50B / RFU, TAOK1 / Fold change vs veh, TAOK1 / RFU, ACBD3 / Fold change vs veh, ACBD3 / RFU, TMA16 / Fold change vs veh, TMA16 / RFU, RWDD3 / Fold change vs veh, RWDD3 / RFU, BCAT1 / Fold change vs veh, BCAT1 / RFU, EDEM3 / Fold change vs veh, EDEM3 / RFU, TMEM33 / Fold change vs veh, TMEM33 / RFU, WDR75 / Fold change vs veh, WDR75 / RFU, AHCTF1 / Fold change vs veh, AHCTF1 / RFU, TFRC / Fold change vs veh, TFRC / RFU, ZDHHC17 / Fold change vs veh, ZDHHC17 / RFU, NOM1 / Fold change vs veh, NOM1 / RFU, ARL8B / Fold change vs veh, ARL8B / RFU, ZBTB11 / Fold change vs veh, ZBTB11 / RFU, TAMM41 / Fold change vs veh, TAMM41 / RFU, KIAA1704 /// LOC100996395 / Fold change vs veh, KIAA1704 /// LOC100996395 / RFU, ING1 / Fold change vs veh, ING1 / RFU, TRMT61B / Fold change vs veh, TRMT61B / RFU, FUBP3 / Fold change vs veh, FUBP3 / RFU, TP53 / Fold change vs veh, TP53 / RFU, TNKS2 / Fold change vs veh, TNKS2 / RFU, ZFP14 / Fold change vs veh, ZFP14 / RFU, ACTR2 / Fold change vs veh, ACTR2 / RFU, PPP3R1 / Fold change vs veh, PPP3R1 / RFU, PIK3R1 / Fold change vs veh, PIK3R1 / RFU, HNRNPA1 / Fold change vs veh, HNRNPA1 / RFU, RNF170 / Fold change vs veh, RNF170 / RFU, ZNF28 / Fold change vs veh, ZNF28 / RFU, RNGTT / Fold change vs veh, RNGTT / RFU, OGT / Fold change vs veh, OGT / RFU, BRD1 / Fold change vs veh, BRD1 / RFU, MARS / Fold change vs veh, MARS / RFU, ZNF655 / Fold change vs veh, ZNF655 / RFU, FAHD1 / Fold change vs veh, FAHD1 / RFU, BDP1 / Fold change vs veh, BDP1 / RFU, LRRCC1 / Fold change vs veh, LRRCC1 / RFU, ARID1A / Fold change vs veh, ARID1A / RFU, ZNF146 / Fold change vs veh, ZNF146 / RFU, ZNF330 / Fold change vs veh, ZNF330 / RFU, GPN3 / Fold change vs veh, GPN3 / RFU, C9orf123 / Fold change vs veh, C9orf123 / RFU, N4BP2L2 / Fold change vs veh, N4BP2L2 / RFU, ARFIP1 / Fold change vs veh, ARFIP1 / RFU, FAM179B / Fold change vs veh, FAM179B / RFU, BCL10 / Fold change vs veh, BCL10 / RFU, UHRF1BP1L / Fold change vs veh, UHRF1BP1L / RFU, BET1 / Fold change vs veh, BET1 / RFU, CNOT2 / Fold change vs veh, CNOT2 / RFU, ZNF268 / Fold change vs veh, ZNF268 / Fold change vs veh, ZNF507 / RFU, DGCR2 / Fold change vs veh, DGCR2 / RFU, WDSUB1 / Fold change vs veh, WDSUB1 / Fold change vs veh, HSP90B1 /// MIR3652 / RFU, ADSS / Fold change vs veh, ADSS / RFU, GK / Fold change vs veh, GK / RFU, ZNF148 / Fold change vs veh, ZNF148 / RFU, TAF9 / Fold change vs veh, TAF9 / RFU, SLC1A5 / Fold change vs veh, SLC1A5 / RFU, SLMO2 / Fold change vs veh, SLMO2 / RFU, ABCC4 / Fold change vs veh, ABCC4 / RFU, LOC101060439 /// RAP1B / Fold change vs veh, LOC101060439 /// RAP1B / RFU, RFX7 / Fold change vs veh, RFX7 / RFU, GTPBP10 / Fold change vs veh, GTPBP10 / RFU, CNEP1R1 / Fold change vs veh, CNEP1R1 / RFU, BIVM-ERCC5 /// ERCC5 / Fold change vs veh, BIVM-ERCC5 /// ERCC5 / RFU, ILF3 / Fold change vs veh, ILF3 / RFU 11762660_at / Fold change /veh 11762660_at / RFU VCAN (11757783_s_at) / Fold change /veh VCAN (11757783_s_at) / RFU DDX43 (11728927_at) / Fold change /veh DDX43 (11728927_at) / RFU KRT8 (11758188_x_at) / Fold change /veh KRT8 (11758188_x_at) / RFU NKD1 (11759106_at) / Fold change /veh NKD1 (11759106_at) / RFU SRD5A1 (11742802_a_at) / Fold change /veh SRD5A1 (11742802_a_at) / RFU TPSAB1 /// TPSB2 (11721975_s_at) / Fold change /veh TPSAB1 /// TPSB2 (11721975_s_at) / RFU GSTM3 (11746129_a_at) / Fold change /veh GSTM3 (11746129_a_at) / RFU IL23R (11737362_x_at) / Fold change /veh IL23R (11737362_x_at) / RFU TMEM51 (11727254_a_at) / Fold change /veh TMEM51 (11727254_a_at) / RFU PIWIL2 (11732686_x_at) / Fold change /veh PIWIL2 (11732686_x_at) / RFU ORM1 (11744905_x_at) / Fold change /veh ORM1 (11744905_x_at) / RFU CCDC152 (11743942_at) / Fold change /veh CCDC152 (11743942_at) / RFU ECM1 (11717891_a_at) / Fold change /veh ECM1 (11717891_a_at) / RFU IL23R (11748794_a_at) / Fold change /veh IL23R (11748794_a_at) / RFU TNFAIP8L3 (11732012_x_at) / Fold change /veh TNFAIP8L3 (11732012_x_at) / RFU MBOAT4 (11741988_at) / Fold change /veh MBOAT4 (11741988_at) / RFU 11764193_at / Fold change /veh 11764193_at / RFU TMEM53 (11763286_at) / Fold change /veh TMEM53 (11763286_at) / RFU MAGEB2 (11727129_at) / Fold change /veh MAGEB2 (11727129_at) / RFU TMEM200A (11744735_a_at) / Fold change /veh TMEM200A (11744735_a_at) / RFU CCDC152 (11751479_a_at) / Fold change /veh CCDC152 (11751479_a_at) / RFU FAM211A (11726209_a_at) / Fold change /veh FAM211A (11726209_a_at) / RFU RGS16 (11746705_a_at) / Fold change /veh RGS16 (11746705_a_at) / RFU VCAN (11755009_s_at) / Fold change /veh VCAN (11755009_s_at) / RFU RHOB (11743442_s_at) / Fold change /veh RHOB (11743442_s_at) / RFU RGS16 (11720943_a_at) / Fold change /veh RGS16 (11720943_a_at) / RFU RGS16 (11720944_at) / Fold change /veh RGS16 (11720944_at) / RFU, VPS4B / Fold change vs veh, VPS4B / RFU, CREB1 / Fold change vs veh, CREB1 / RFU, DNAJC13 / Fold change vs veh, DNAJC13 / RFU, GNAQ / Fold change vs veh, GNAQ / RFU, CDK5R1 / Fold change vs veh, CDK5R1 / RFU, ZRANB3 / Fold change vs veh, ZRANB3 / RFU, CUL4A / Fold change vs veh, CUL4A / RFU, CCNY / Fold change vs veh, CCNY / RFU, UFL1 / Fold change vs veh, UFL1 / RFU, COG3 / Fold change vs veh, COG3 / RFU, DIAPH2 / Fold change vs veh, DIAPH2 / RFU, SKA2 / Fold change vs veh, SKA2 / RFU, AFF3 / Fold change vs veh, AFF3 / RFU, LMF1 / Fold change vs veh, LMF1 / RFU, IPO11 / Fold change vs veh, IPO11 / RFU, DFFB / Fold change vs veh, DFFB / RFU, FOXP1 / Fold change vs veh, FOXP1 / RFU, CARD8 / Fold change vs veh, CARD8 / RFU, STRN3 / Fold change vs veh, STRN3 / RFU, ADK / Fold change vs veh, ADK / RFU, RASSF2 / Fold change vs veh, RASSF2 / RFU, WIPF1 / Fold change vs veh, WIPF1 / RFU, LARP1B / Fold change vs veh, LARP1B / RFU, RASA1 / Fold change vs veh, RASA1 / RFU, RB1 / Fold change vs veh, RB1 / RFU, PPFIA1 / Fold change vs veh, PPFIA1 / RFU, MAT2A / Fold change vs veh, MAT2A / RFU, CCT5 / Fold change vs veh, CCT5 / RFU, WDR92 / Fold change vs veh, WDR92 / RFU, CUX1 / Fold change vs veh, CUX1 / RFU, TTC7A / Fold change vs veh, TTC7A / RFU, TMEM135 / Fold change vs veh, TMEM135 / RFU, DEPTOR / Fold change vs veh, DEPTOR / RFU, CPM / Fold change vs veh, CPM / RFU, DNAJB6 / Fold change vs veh, DNAJB6 / RFU, CACNA2D3 / Fold change vs veh, CACNA2D3 / RFU, DTX4 / Fold change vs veh, DTX4 / RFU, TFCP2 / Fold change vs veh, TFCP2 / RFU, GMCL1 /// GMCL1P1 / Fold change vs veh, GMCL1 /// GMCL1P1 / RFU, AEBP2 / Fold change vs veh, AEBP2 / RFU, SNHG1 /// SNORD22 /// SNORD25 /// SNORD26 /// SNORD27 /// SNORD28 /// SNORD29 /// SNORD31 / Fold change vs veh, SNHG1 /// SNORD22 /// SNORD25 /// SNORD26 /// SNORD27 /// SNORD28 /// SNORD29 /// SNORD31 / Fold change (Aza/veh), C12orf56 (ProbeSet 11735607_a_at) / Fold change (ACY-1035/veh), C12orf56 (ProbeSet 11735607_a_at) / Fold change (Aza/veh), FGFR1OP (ProbeSet 11751329_s_at) / Fold change (ACY-1035/veh), FGFR1OP (ProbeSet 11751329_s_at) / Fold change (Aza/veh), VPS36 (ProbeSet 11739960_a_at) / Fold change (ACY-1035/veh), VPS36 (ProbeSet 11739960_a_at) / RFU SYPL1 (11715823_x_at) / Fold change /veh SYPL1 (11715823_x_at) / RFU IGFBP7 (11715501_s_at) / Fold change /veh IGFBP7 (11715501_s_at) / RFU REEP3 (11722064_at) / Fold change /veh REEP3 (11722064_at) / RFU IGLL1 (11728026_x_at) / Fold change /veh IGLL1 (11728026_x_at): dose or concentration left out as unconfirmed
Details: MV-4-11 cells, 48 hours

In the case of Nc1ncn([C@@H]2O[C@H](CO)[C@@H](O)[C@H]2O)c(=O)n1 [azacitidine], the “RFU TUBB4B (11761932_at)” value is reported as 18.89 RFU.
